Laboratory results published in patent US8999964B2, “TGR5 modulators and methods of use thereof” (Intercept Pharmaceuticals, Inc., priority 2008, dated 2015).
Counter-ions that a name gives are not always drawn.

Columns and labels:
LXRα = target: T1, LXRα (Homo sapiens, UniProt Q13133); assay: LXR coactivator recruitment (Alphascreen); type: biochemical; conditions: Table 6
T1 sequence (Q13133 1-447): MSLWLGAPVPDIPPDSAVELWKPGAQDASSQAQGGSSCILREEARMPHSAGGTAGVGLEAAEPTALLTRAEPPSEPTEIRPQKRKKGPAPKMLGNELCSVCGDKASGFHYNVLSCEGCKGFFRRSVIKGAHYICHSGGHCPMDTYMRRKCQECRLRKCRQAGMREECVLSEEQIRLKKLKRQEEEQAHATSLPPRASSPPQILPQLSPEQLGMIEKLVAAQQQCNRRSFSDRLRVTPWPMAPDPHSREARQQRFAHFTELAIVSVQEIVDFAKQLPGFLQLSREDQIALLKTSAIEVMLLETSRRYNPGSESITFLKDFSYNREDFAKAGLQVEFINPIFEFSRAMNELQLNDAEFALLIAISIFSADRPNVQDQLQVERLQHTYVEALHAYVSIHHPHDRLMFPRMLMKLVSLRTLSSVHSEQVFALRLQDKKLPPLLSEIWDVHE

PPARδ = target: T2, PPARδ (Homo sapiens, UniProt Q03181); assay: PPARδ activation, NR selectivity assay; conditions: Table 6
T2 sequence (Q03181 211-439 limits assumed): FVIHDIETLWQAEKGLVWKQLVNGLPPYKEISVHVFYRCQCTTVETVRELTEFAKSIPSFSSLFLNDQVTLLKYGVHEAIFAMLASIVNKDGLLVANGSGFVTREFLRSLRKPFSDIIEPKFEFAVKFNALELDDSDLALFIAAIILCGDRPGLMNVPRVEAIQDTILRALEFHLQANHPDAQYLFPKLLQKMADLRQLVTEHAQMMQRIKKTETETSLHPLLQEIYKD

in vitro = conditions: human
[1] = Critical micellar concentration by surface tension measurements; type: physicochemical
Method: The critical micellar concentration (CMC) was determined by surface tension (ST) measurements using a maximum bubble-pressure method which give surface tension values slightly affected by potential impurities […] static methods. […] The surface tension values were plotted against the logarithm of the bile salt concentration; the regression lines corresponding to the two parts of the curve (monomeric and micellar phases) were calculated using the method of least squares, and the intersection of the lines was taken as the CMC value. From the ST vs concentration curves the value of the surface tension at the CMC (equilibrium between monomers and multimers species) was also calculated giving information about the detergency power which is related to the size of the micelles with associate surface tension lowering capacity. The CMC was evaluated by surface tension measurements in non equilibrium conditions i.e. in conditions that impurities slightly affect the surface tension results (FIG. 6). […] The presence of a hydroxyl group in the C-16 beta position reduces the hydrophobic area responsible for back to back interaction, which is to form micelles and therefore, the micelles are small and poorly detergent. This property confers to the molecule a low toxicity when accumulated in a given biological fluid or organ.

[2] = Bile fistula rat, duodenal (id) infusion: bile flow, biliary secretion, metabolism; conditions: for Intestinal absorption: biliary secretion id versus iv; for Conc. in bile: rat bile; for Secretion (biliary): rat
hFXR = target: T3, hFXR (Homo sapiens, UniProt Q96RI1); assay: Alphascreen coactivator recruitment assay on FXR
T3 sequence (Q96RI1 262-486 limits assumed): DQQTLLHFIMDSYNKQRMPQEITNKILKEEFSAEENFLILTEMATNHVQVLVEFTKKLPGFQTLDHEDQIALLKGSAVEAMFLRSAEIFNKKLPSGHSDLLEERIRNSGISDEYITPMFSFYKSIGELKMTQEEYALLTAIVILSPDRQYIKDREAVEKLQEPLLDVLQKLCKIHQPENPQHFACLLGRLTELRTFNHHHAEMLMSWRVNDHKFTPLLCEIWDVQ
Method: Activity on FXR was assayed by using Alphascreen technology in a coactivator recruitment assay. AlphaScreen is a bead-based chemistry assay used to study biomolecular interactions. Binding of molecules captured on the beads leads to an energy transfer from one bead to the other, ultimately producing a luminescent signal. When the partners interact, chemical energy is transferred from Donor to Acceptor beads and a signal is produced. Upon bile acids stimulation the GST-FXR-LBD interacts with the Src-1 peptide. Anti-GST-coated Acceptor beads were used to capture the GST-fusion FXR-LBD whereas the biotinylated-SRC-1 peptide was captured by the streptavidin Donor beads. Upon illumination at 680 nm chemical energy is transferred from Donor to Acceptor beads across the complex streptavidin-Donor/Src-1-Biotin/GSTFXR-LBD/Anti-GST-Acceptor and a signal is produced. The assay was performed in white, low-volume, 384-well Optiplates (PerkinElmer) using a final volume of 25 μl containing final concentrations of 10 nM of purified GST-tagged FXR-LBD protein, 30 nM biotinylated Src-1 peptide, 20 μg/ml anti-GST acceptor beads acceptor beads and 10 μg/ml of streptavidin donor bead (PerkinElmer). […] After the addition of the detection mix (acceptor and donor beads), the plates were incubated in the dark for 4 h at room temperature and then were read with an Envision microplate analyzer (PerkinElmer). […]

VDR = target: T4, VDR (Homo sapiens, UniProt P11473); assay: VDR activation, NR selectivity assay; type: biochemical; conditions: Table 6
T4 construct: purchased Invitrogen
T4 sequence (P11473 127-423 limits assumed): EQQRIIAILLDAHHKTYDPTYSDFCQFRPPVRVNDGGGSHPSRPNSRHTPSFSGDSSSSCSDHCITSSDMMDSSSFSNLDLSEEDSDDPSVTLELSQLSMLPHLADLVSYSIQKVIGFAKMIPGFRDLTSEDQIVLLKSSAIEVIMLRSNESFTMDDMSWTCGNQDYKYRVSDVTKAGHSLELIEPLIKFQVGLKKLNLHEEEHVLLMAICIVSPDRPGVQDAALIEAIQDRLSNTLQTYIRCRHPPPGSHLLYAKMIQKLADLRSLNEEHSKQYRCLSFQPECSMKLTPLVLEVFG

[3] = duodenal infusion 1 μmol/kg/min 1 h, 90 min

CC[C@H]1[C@@H](O)[C@@H]2[C@H](CC[C@]3(C)[C@@H]([C@H](C)CCC(=O)O)[C@@H](O)C[C@@H]23)[C@@]2(C)CC[C@@H](O)C[C@@H]12 [Compound 10, 3α,7α,16β-trihydroxy-6α-ethyl-5β-cholan-24-oic acid sodium salt]
LXRα Activation EC50 (LXRα): No activity | PPARδ Activation EC50 (PPARδ): No activity | EC50 at 4 h (in vitro): > 1000 µM | Detergency (CMC and surface tension lowering capacity) ([1]; NaCl […]): moderate detergent | CMC […] Na+ ([1]; […] NaCl water solution): 5.9 mM | STCMC: Surface Tension at CMC ([1]; […] NaCl water solution): 52.4 Dyne/cm | Metabolism, species in bile after id administration ([2]; bile fistula rat, mass spectrometry): recovered as such and mainly metabolised to form the taurine conjugates | Intestinal absorption ([2]; bile fistula rat, listed as compound 10, sodium salt): poor intestinal absorption | Intestinal absorption ([2]; bile fistula rat, sodium salt): efficient | Conc. in bile [2, 3]: 10 µM | Secretion (biliary) [2, 3]: 0.0004 µmol/kg/min | Choleretic effect (bile flow) ([2]; duodenal infusion 1 μmol/kg/min, 1 hour, bile fistula rat): not choleretic | Conc. in bile ([2]; duodenal infusion, 120 min): 70 µM | Conc. in bile ([2]; duodenal infusion, 150 min): 390 µM | Conc. in bile ([2]; duodenal infusion, 180 min): 140 µM | Conc. in bile ([2]; duodenal infusion, 210 min): 90 µM | Conc. in bile ([2]; duodenal infusion, 240 min): 30 µM | Conc. in bile ([2]; duodenal infusion, 270 min): 20 µM | Conc. in bile ([2]; duodenal infusion, 300 min): 20 µM | Secretion (biliary) ([2]; duodenal infusion, 120 min): 0.003 µmol/kg/min | Secretion (biliary) ([2]; duodenal infusion, 150 min): 0.019 µmol/kg/min | Secretion (biliary) ([2]; duodenal infusion, 180 min): 0.003 µmol/kg/min | Secretion (biliary) ([2]; duodenal infusion, 210 min): 0.004 µmol/kg/min | Secretion (biliary) ([2]; duodenal infusion, 240 min): 0.001 µmol/kg/min | Secretion (biliary) ([2]; duodenal infusion, 270 min): 0.001 µmol/kg/min | Secretion (biliary) ([2]; duodenal infusion, 300 min): 0.001 µmol/kg/min | EC50 (hFXR): 12 µM | VDR Activation EC50 (VDR): No activity
